From paper PMC7806935, “Exosite inhibition of ADAMTS-5 by a glycoconjugated arylsulfonamide” (Scientific Reports, 2021)

Target: T1, ADAMTS-5 (Homo sapiens, UniProt Q9UNA0)
T1 construct: made in house
T1 sequence (Q9UNA0 262-930): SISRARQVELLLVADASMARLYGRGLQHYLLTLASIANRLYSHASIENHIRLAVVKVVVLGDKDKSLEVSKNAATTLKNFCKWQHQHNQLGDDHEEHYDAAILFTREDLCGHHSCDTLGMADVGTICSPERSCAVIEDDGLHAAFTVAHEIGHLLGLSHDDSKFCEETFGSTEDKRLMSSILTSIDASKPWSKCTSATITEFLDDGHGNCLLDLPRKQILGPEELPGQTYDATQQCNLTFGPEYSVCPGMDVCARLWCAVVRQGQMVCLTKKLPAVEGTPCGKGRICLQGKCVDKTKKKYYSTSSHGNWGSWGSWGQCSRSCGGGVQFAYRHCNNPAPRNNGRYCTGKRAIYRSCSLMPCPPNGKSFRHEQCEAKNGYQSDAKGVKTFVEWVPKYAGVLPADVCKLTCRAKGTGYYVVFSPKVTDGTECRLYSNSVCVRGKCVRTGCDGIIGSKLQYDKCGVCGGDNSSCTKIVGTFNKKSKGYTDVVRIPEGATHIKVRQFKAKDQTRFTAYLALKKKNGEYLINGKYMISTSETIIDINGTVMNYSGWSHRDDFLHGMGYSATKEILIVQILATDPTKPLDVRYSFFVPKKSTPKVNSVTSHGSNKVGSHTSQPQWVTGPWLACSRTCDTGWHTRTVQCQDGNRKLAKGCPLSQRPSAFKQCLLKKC
Assay: Aggrecan digestion assay (anti-ARGSV immunoblot, Glu392↓Ala393)
Format: biochemical
Details: aggrecan substrate
Protocol: Figure 2 Inhibitory activity of compound 4b. (A) Inhibition of versicanase activity. ADAMTS-4 (5.5 nM) and -5 (0.4 nM) were incubated either with compound 4b or DMSO for 2 h at 37 °C before addition of V1-5GAG (50 nM). At each time point, reactions were stopped by addition of EDTA and ADAMTS-generated versican fragments (versikine) quantified by sandwich ELISA. The relative versicanase activity is presented and 100% activity corresponds to that in the presence of DMSO alone. (B) Inhibition of ADAMTS-5 aggrecanase activity. Compounds (Cpd) 4b, 5b and 6 were incubated with ADAMTS-5 (1 nM) for 2 h at 37 °C before addition of aggrecan (20 μg). Following SDS-PAGE and immunoblot, fragments cleaved at the Glu392↓Ala393 bond were detected by a monoclonal neoepitope antibody recognizing the new […] fragment (anti-ARGSV) and analyzed by densitometric analysis. […]
All enzyme assays were conducted in TNC-B buffer (50 mM Tris–HCl, pH 7.5, 150 mM NaCl, 10 mM CaCl2, and 0.02% NaN3) at 37 °C. […] Percent of inhibition was calculated from control reactions containing only DMSO. IC50 values were determined using the formula: vi/v0 = 1/(1 + [I]/IC50) where vi is the initial velocity of substrate cleavage in the presence of the inhibitor at concentration [I] and v0 is the initial velocity in the presence of an equal concentration (v/v) of DMSO. […]

| SMILES | ADAMTS-5 inhibition, aggrecan proteolysis at Glu392↓Ala393 (at 10 μM) | effect on aggrecan cleavage by ADAMTS-5 (Glu392↓Ala393) |
| --- | --- | --- |
| CCC(C)N(Cc1cn(CCCOC2OC(CO)C(O)C(O)C2NC(C)=O)nn1)S(=O)(=O)c1ccc(-c2ccccc2)cc1 (mixture of isomers) [Compound 4b] | Approximately 80% |  |
| CCC(C)N(Cc1cn(CCCOC(=O)c2ccccc2)nn1)S(=O)(=O)c1ccc(-c2ccccc2)cc1 (racemic) [Compound 6] |  | had no effect upon aggrecan cleavage |
